According to US8841259B2, “Compositions and methods for treating vascular permeability” (Joslin Diabetes Center, priority 2005, dated 2014):

Tests used:
[1] = tested on: retinal vascular permeability (RVP) in rats; test: Retinal vascular permeability by vitreous fluorophotometry after intravitreal injection; type: in vivo, rat; settings: for RVP (vitreous fluorescein intensity): CA-1 200 ng/eye, BSS control 7.4 au; for effect on CA-1 induced permeability: co-injection of serpin family proteins
Protocol: (§1) To measure retinal vascular permeability, 265 male Sprague Dawley and 12 male Long-Evans rats (Taconic Farms, Germantown, N.Y.) with initial body weights of 250 g were used. Experiments were performed in accordance with guidelines from the Association for Research in Vision and Opthalmology and approval from the Animal Care and Use committee of the Joslin Diabetes Center. Video fluorescein angiography was performed using a scanning laser opthalmoscope (Rodenstock Instrument, Munich, Germany) (Horio et al., Diabetologia 47:113-123 (2004)). Vitreous fluorophotometry and administration of fluorescein-dextran was performed as described previously (Aiello et al., Diabetes 46:1473-1480 (1997)).
Intravitreal injection of CA-1 increased RVP, as measured by vitreous fluorophotometry, in a dose-dependent manner (FIG. 3A), with a maximal increase of 2.3 fold (p<0.05) at 2 μg. […] The effect of a single dose of CA-1 on RVP was sustained at 59% over control at 24 hours post injection (FIG. 3B).

[2] = tested on: retinal vascular permeability (RVP) in rats; test: Video fluorescein angiography of rat retina after intravitreal injection; type: in vivo
Protocol: as §1
Carbonic anhydrase was not detected by either mass spectroscopy or western blot analysis in the vitreous of untreated Sprague Dawley rats.

[3] = tested on: RVP in rat eyes injected with human vitreous; test: Transplant of human vitreous into rat vitreous, RVP measurement; type: in vivo; settings: vitreous pretreated with 10 μM
Protocol: In these tests, 10 μl of human vitreous was injected into the rat vitreous compartment and the response on retinal vascular permeability was measured.

[4] = tested on: retinal vascular permeability (RVP) in rats; test: Retinal Evans blue permeability after intravitreal lysed RBC or CA-1; type: in vivo, rat
Protocol: To prepare lysed RBCs, 3 ml rat blood in 15 ml saline was centrifuged at 1,000 g for 10 minutes; the plasma and buffy coat were discarded. The RBCs were then washed in 12 ml saline. The packed cells were frozen in liquid nitrogen for 5 minutes and then allowed to thaw at room temperature. The lysed RBCs were centrifuged at 12,000 rpm for 30 minutes. The supernatant was used for experiment. […] Approximate 21 hours later, Evans blue was injected at a dosage of 30 mg/kg. After the dye had circulated for 3 hours the rats were perfused via the left ventricle with saline. The retina were harvested and Evans blue dye was extracted by incubation in 0.3 ml formamide for 20 hours at 60° C. The extract was centrifuged (14,000 rpm for 30 minutes). The absorbance of the filtrate was measured with a spectrophotometer at 620 nm. The concentration of dye in the extracts was calculated from a standard curve.

[5] = tested on: retina of streptozotocin diabetic rats; test: OCT imaging of retinal thickness in diabetic rats after intravitreal CA-1; type: in vivo, rat
Protocol: Rats had diabetes induced by intraperitoneal injection of streptozotocin (55 mg/kg) after overnight fast. Diabetes was confirmed after 24 hours with blood glucose greater than 250 mg/dl. After 2 weeks of diabetes, rats were injected intravitreally with CA-1 or BSS and the retinas imaged by OCT after 48 hours. Retinal ultrastructure was imaged and quantitatively measured using a high-speed, ultrahigh resolution OCT system with Fourier/spectral domain detection. Using a broadband superluminescent diode light source (Superlum Diodes Limited, Moscow, Russia) with a 155 nm bandwidth, a 2.6 μm axial resolution in tissue was achieved after digital spectral shaping. The imaging speed was 26,000 axial scans per second and the system sensitivity was 96 dB with an axial (depth) scan range of 1.3 mm in tissue. The OCT research instrument was designed for small animal retinal imaging and used a post-objective scanning microscope with a 10 μm transverse resolution. Corneal refraction was compensated with a coverslip and Goniosol (CIBA Vision Ophthalmics). Each data set consisted of 256 images with 512 axial scans per image, acquired in a raster pattern on the retina. Measurements of intraretinal layer thicknesses were performed on individual cross sectional OCT images.

[6] = tested on: blood-brain barrier permeability in rats; test: Blood-brain barrier permeability to Evans blue after subdural infusion; type: in vivo, rat
Protocol: Approximately 22 hours later, 0.7 ml Evans blue was injected through a jugular vein catheter. After the dye circulated for 120 minutes, the rats were perfused with 50 ml saline through the left ventricle at 110 mmHg pressure. After decapitation, the brain was weighed and Evan's blue was extracted by incubating each brain in 1 ml of formamide for 20 hours at 60° C. The extract was centrifuged (14,000 rpm for 30 minutes). The absorbance of the filtrate was measured with a spectrophotometer at 620 nm. The concentration of dye in the extracts was calculated from a standard curve of Evans blue in formamide, normalized to the brain weight, and expressed per gram of tissue.

[7] = intravitreal injection of 100 μM
[8] = diabetic rat, 48 hours after intravitreal injection, OCT

With aprotinin [reference compound] the “reduction of CA-1 stimulated RVP” value [1, 7] was 50%.

For Hoe 140 [reference compound], the “reduction of CA-1 stimulated RVP” value ([1]; co-injection with CA-1) was 67%.

In the case of CC(=O)Nc1nnc(S(N)(=O)=O)s1 [acetazolamide, reference compound], the “effect on basal RVP” value ([1]; 10 μM) is reported as “no effect”, the inhibition at 10 µM ([1]; Rattus norvegicus, co-injection of 10 μM, p<0.05, read-out: inhibition of CA-1 induced RVP) is reported as 68% and the “effect on increase in RVP induced by CA-1” value ([2]; co-injection 10 μM with CA-1) is reported as “blocked”. The “effect on RVP in rat eyes injected with vitreous from noDR and NDM groups” value [3] was “did not affect”, the “RVP in rat eyes injected with vitreous from subjects with PDR” value ([3]; reduced from 13.67±5.23, P=0.017, n=5) was 9.20±3.85 and the “effect on increase in RVP by lysed RBC” value ([4]; pretreatment of lysed RBC with 10 μM, P<0.05) was “blocked”.

In the case of “CA-1: carbonic anhydrase-1, extracellular erythrocyte enzyme injected as vascular permeability factor”, the “increase of ONL share of retinal thickness compared with BSS-treated diabetic rats” value ([5]; 48 hours) is reported as 17%, the “increase of ONL share of retinal thickness compared with nondiabetic rats” value ([5]; 48 hours) is reported as 18% and the “ONL share of overall retinal thickness” value ([5]; diabetic rat, 48 hours) is reported as 38%. The “increase in outer nuclear layer (ONL) thickness vs contralateral saline vehicle eye” value [5, 8] was 30%, the “increase in retina thickness vs contralateral saline vehicle eye” value [5, 8] was 12% and the “increase of RVP” value ([1]; 200 ng/eye (20 μg/ml) intravitreal, vs BSS, P<0.05) was 2.4 fold. For the same molecule, the “maximal increase of RVP” value ([1]; at 2 μg intravitreal, p<0.05) was 2.3 fold, the “EC50 as final concentration in vitreous” value ([1]; following dilution in 100 uL of rat vitreous) was “about 670 pg/μL” and the “EC50 for increase of RVP” value ([1]; intravitreal injection) was 67 ng. For the same molecule, the “RVP (vitreous fluorescein intensity)” value ([1]; intravitreal injection) was 17.4 au, the RVP over control ([1]; single dose, 24 hours post injection) was 59% and the “retinal vascular leakage (fluorescein and 2000 kDa fluorescein-dextran)” value ([2]; 48 hours after intravitreal injection) was “focal areas of retinal vascular leakage were observed”. The retinal fluorescein leakage ([2]; intravitreal 2 μg/ml, at 30 minutes, vs baseline or BSS) was “increased retinal fluorescein leakage”, the “RVP compared with eyes that received BSS” value ([4]; intravitreal injection, Evans blue) was 3.0 fold and the “Evan's blue leakage on posterior and anterior surfaces of the brain” value ([6]; subdural infusion, 24 hours) was “induced intense focal areas of Evan's blue leakage”. The “increase of permeability in brain compared to BSS” value ([6]; subdural infusion, Evan's blue quantification, P<0.05) was 2.3 fold.

VEGF was tested, and the “RVP (vitreous fluorescein intensity)” value ([1]; intravitreal injection) was 14.5 au.

With CC(=O)N[C@@H](CC(C)C)C(=O)N[C@@H](CC(C)C)C(=O)N[C@H](C=O)CCCNC(=N)N [leupeptin, reference compound] the “reduction of CA-1 stimulated RVP” value [1, 7] was 71%.

B1: PEDF: pigment epithelium-derived factor, serpin family protein (protein, UniProt P36955 20-418, looked up)
Pigment epithelium-derived …: QNPASPPEEGSPDPDSTGALVEEEDPFFKVPVNKLAAAVSNFGYDLYRVRSSTSPTTNVLLSPLSVATALSALSLGAEQRTESIIHRALYYDLISSPDIHGTYKELLDTVTAPQKNLKSASRIVFEKKLRIKSSFVAPLEKSYGTRPRVLTGNPRLDLQEINNWVQAQMKGKLARSTKEIPDEISILLLGVAHFKGQWVTKFDSRKTSLEDFYLDEERTVRVPMMSDPKAVLRYGLDSDLSCKIAQLPLTGSMSIIFFLPLKVTQNLTLIEESLTSEFIHDIDRELKTVQAVLTVPKLKLSYEGEVTKSLQEMKLQSLFDSPDFSKITGKPIKLTQVEHRAGFEWNEDGAGTTPSPGLQPAHLTFPLDYHLNQPFIFVLRDTDTGALLFIGKILDPRGP
B1 was tested, and the “effect on CA-1 induced permeability” value [1] was “did not block”.

B2: C1-INH: Complement-1 Inhibitor, inhibits the serum protease kallikrein (protein, UniProt P05155 23-500, looked up)
Plasma protease C1 inhibitor: NPNATSSSSQDPESLQDRGEGKVATTVISKMLFVEPILEVSSLPTTNSTTNSATKITANTTDEPTTQPTTEPTTQPTIQPTQPTTQLPTDSPTQPTTGSFCPGPVTLCSDLESHSTEAVLGDALVDFSLKLYHAFSAMKKVETNMAFSPFSIASLLTQVLLGAGENTKTNLESILSYPKDFTCVHQALKGFTTKGVTSVSQIFHSPDLAIRDTFVNASRTLYSSSPRVLSNNSDANLELINTWVAKNTNNKISRLLDSLPSDTRLVLLNAIYLSAKWKTTFDPKKTRMEPFHFKNSVIKVPMMNSKKYPVAHFIDQTLKAKVGQLQLSHNLSLVILVPQNLKHRLEDMEQALSPSVFKAIMEKLEMSKFQPTLLTLPRIKVTTSQDMLSIMEKLEFFDFSYDLNLCGLTEDPDLQVSAMQHQTVLELTETGVEAAAASAISVARTLLVFEVQQPFLFVLWDQQHKFPVFMGRVYDPRA
For B2, the “effect on VEGF-induced retinal fluorescein permeability” value ([1]; co-injection) was “did not affect”, the “reduction of CA-1 stimulated RVP” value ([1]; co-injection with CA-1) was 92% and the “effect on CA-1-induced cerebral vascular permeability” value ([6]; subdural, with CA-1) was “blocked”.

B3: angiotensinogen: serpin family protein (protein, UniProt P01019 25-476, looked up)
Angiotensinogen: DRVYIHPFHLVIHNESTCEQLAKANAGKPKDPTFIPAPIQAKTSPVDEKALQDQLVLVAAKLDTEDKLRAAMVGMLANFLGFRIYGMHSELWGVVHGATVLSPTAVFGTLASLYLGALDHTADRLQAILGVPWKDKNCTSRLDAHKVLSALQAVQGLLVAQGRADSQAQLLLSTVVGVFTAPGLHLKQPFVQGLALYTPVVLPRSLDFTELDVAAEKIDRFMQAVTGWKTGCSLMGASVDSTLAFNTYVHFQGKMKGFSLLAEPQEFWVDNSTSVSVPMLSGMGTFQHWSDIQDNFSVTQVPFTESACLLLIQPHYASDLDKVEGLTFQQNSLNWMKKLSPRTIHLTMPQLVLQGSYDLQDLLAQAELPAILHTELNLQKLSNDRIRVGEVLNSIFFELEADEREPTESTQQLNKPEVLEVTLNRPFLFAVYDQSATALHFLGRVANPLSTA
In the case of B3, the “effect on CA-1 induced permeability” value [1] is reported as “did not block”.
